Measured values published in patent US20140356383A1, “ADMINISTRATION OF AN ANTI-GCC ANTIBODY-DRUG CONJUGATE AND A DNA DAMAGING AGENT IN THE TREATMENT OF CANCER” (priority 2013, published 2014).
Square brackets hold non-standard residues; d marks the D form. Peptide text beside a SMILES is read from it. * marks the point of attachment. Dolaproine = CO[C@@H]([C@@H]1CCCN1)[C@@H](C)C(=O)O; Dil = CC[C@H](C)[C@H](NC)[C@@H](CC(=O)O)OC; X1 = C[C@@H](N*)[C@@H](O)c1ccccc1; NMeV = CN[C@H](C(=O)O)C(C)C

Experiments:
[1] = Free-MMAE levels in serum vs. tumor after 5F9 vcMMAE; assay type: in vivo, mice; set-up: AUCinf Serum / AUCinf Tumor: concentration or dose not given beside the values; conditions: for AUCinf Serum / AUCinf Tumor: free MMAE after 5F9 vcMMAE; for Tumor/Serum: ratio of MMAE AUCinf
Protocol: Thus, the 5F9 vcMMAE immunoconjugate was confirmed to bind to GCC in the refractory PHTX-11c model. Free-MMAE levels in serum vs. tumor were also assessed to ensure the 5F9 vcMMAE immunoconjugate was being processed by the tumors (i.e., that the immunoconjugate was being internalized and that MMAE was being cleaved). A comparison of free-MMAE serum and tumor levels in the MMAE-refractory PHTX-11c model and the sensitive PHTX-09c and HEK293 GCC #2 models is shown Table 27 below. The presence of drug was confirmed within the tumors during dosing and post-dosing. Additionally, the free-MMAE levels in this tumor model were the same as the levels seen in tumor xenograft models that were sensitive to the immunoconjugate.

293 GCC#2 tumors = test: Efficacy study with auristatin conjugates in 293 GCC#2 tumors, q7d×4; assay type: in vivo, SCID mice; set-up: TGI / TGD: unit not given here; conditions: 300 μg/kg iv q7d×4
Protocol: 293 GCC#2 tumor-bearing SCID mice were treated with 5F9 conjugates with vc MMAE, vcMMAF or mcMMAF at three doses in comparison with 209 conjugates of these toxins or with free toxins or vehicle control. Doses were administered iv on a q7d×4 schedule. Tumors were harvested at days 3, 7, 10, 13 and 17. […] Table 18 provides a summary of the results (TGI=tumor growth inhibition, T/C=treatment/control, TGD=tumor growth delay, CR/PR=complete response/partial response; p value=measure to judge statistical significance, NS=not significant).

[2] = system: PHTX-9c primary human colon tumor xenograft; test: Single agent antitumor activity in PHTX-9c (PHTX-09c) primary human colon tumor xenograft
Protocol: Female CB-17 SCID mice (eight weeks old) were inoculated subcutaneously (SC) into the flank with PHTX-9c tumor fragments (2 mm×2 mm). Tumor growth was monitored twice per week using vernier calipers and the mean tumor volume was calculated using the formula (0.5×[length×width^2]). When the mean tumor volume reached approximately 150 mm^3 (Study A) or 160 mm^3 (Study B), animals were randomized into treatment groups (n=10/group for Study A and n=9/group for Study B).
Doses were administered on Days 1, 8, and 15 for the QW schedule and Days 1, 4, 8, 11, 15, and 18 for the BIW schedule. […] The equivalent dose of linker+MMAE is 4% of the 5F9-vcMMAE dose. These calculations are based on a mean 3.9 MMAE molecules per antibody and a free antibody molecular weight of 150 kD. Actual antibody molecular weight will vary slightly due to degree of glycosylation.
Tumor volume and body weight were measured twice weekly and were continued beyond the treatment period to measure regrowth kinetics, as evidenced by tumor growth delay (TGD). Tumor volume measurements were continued until tumor volume reached 10% of the body weight in a single mouse within a treatment group, at which time the group was terminated. The percentage of tumor growth inhibition (TGI) ([mean tumor volume of the control group—mean tumor volume of a treated group]/mean tumor volume of the control group; a T/C ratio) was determined on Day 20. The T/C ratios across a treatment group were compared to the T/C ratios of the control group using a two-tailed Welch's t-test.
The differences in the tumor growth trends over time between pairs of treatment groups were assessed using linear mixed effects regression models. These models account for the fact that each animal was measured at multiple time points. A separate model was fit for each comparison, and the areas under the curve (AUC) for each treatment group were calculated using the predicted values from the model. The percent decrease in AUC (dAUC) relative to the reference group was then calculated.
The 5F9 vcMMAE immunoconjugate was tested for single agent anti-tumor activity in the four primary human tumor xengraft models at varying concentrations in order to explore whether GCC expression levels played a role in tumor sensitivity. […] Free-MMAE was also used as a negative control.

PHTX-09c s.c. xenograft = test: 5F9 vcMMAE and cisplatin in PHTX-09c s.c. xenografts (Study CPGC-11-EF05)
Protocol: The endpoints for each treatment group was either a) tumor volume reaches 10% body weight; or b) body weight loss of >20%. The projected tumor volume at the study initiation date was 200 mm^3.
Not greater than one day prior to dosing, all animals were weighed to the nearest gram and grouped. Dosing solutions were vortexed prior to each administration to ensure correct delivery of compound. Animals received approximately 0.1 ml doses administered I.V. using a 1 cc syringe, 27-30 gauge, ½-¾ inch in length.
Tumor volume measurements were obtained twice per week using Vernier calipers (0.01 mm). Tumor volume was calculated using the formula:
Efficacy was evaluated in terms of % tumor growth inhibition (TGI) and tumor growth delay (TGD); the difference in days for treated vs. control tumors to reach final study volume).
TGI was assessed on an arbitrary day (when the maximum tumor volume (“MTV” of the control treatment group reaches the maximum allowable tumor volume), using the following formula:
TGD was assessed by calculating T−C, where T=mean time (in days) for treatment group tumors to reach a predetermined size, and where C=mean time (in days) for the control group tumors to reach a predetermined size (e.g., 1,000 mm^3).
The predicted differences in the log tumor values (Yijk−Yi0k, which can be interpreted as log10 (fold change from day 0)) were taken from the above models to calculate mean AUC values for each treatment group. A dAUC value was then calculated as:
For synergy analyses, the observed differences in the log tumor values were used to calculate AUC values for each animal. […] The AUC for the control, or vehicle, group was calculated using the predicted values from the pairwise models described above. A measure of synergy was defined as follows:
where Ak and Bk are the k^th animal in the individual treatment groups and ABk is the k^th animal in combination treatment group. AUCctl is the model-predicted AUC for the control group and was treated as a constant with no variability. The standard error of the synergy score was calculated as the square root of the sum of squared standard errors across groups A, B, and AB. The degrees of freedom were estimated using the Welch-Satterthwaite equation. A hypothesis test was performed to determine if the synergy score differed from 0. P values were calculated by dividing the synergy score by its standard error and tested against a t-distribution (two-tailed) with the above-calculated degrees of freedom.
The effect was classified into four different categories. It was considered synergistic if the synergy score was less than 0, and additive if the synergy score wasn't statistically different from 0.

[3] = system: PHTX-249 Pa s.c. xenograft; test: 5F9 vcMMAE and gemcitabine in PHTX-249 Pa s.c. xenografts (Study CPGC-13-EF08); assay type: in vivo, CB-17 SCID mice; conditions: for dAUC: reference vehicle
Protocol: 264.4 ul stock Gemcitabine into 3135.6 ul NS.
(§1) Day D0 was the first day of treatment.
(§2) Tumor volume was calculated using the formula: […]
(§3) A negative dAUC is interpreted as an increase in AUC relative to the reference. It is important to evaluate not only the P value, but also the dAUC. Comparisons with significant P values, but small dAUC values, may not be of interest.

[4] = system: PHTX-249 Pa s.c. xenograft; test: 5F9 vcMMAE and gemcitabine in PHTX-249 Pa s.c. xenografts (Study CPGC-13-EF05); assay type: in vivo, CB-17 SCID mice; conditions: reference vehicle
Protocol: as §1, §2, §3

[5] = system: PHTX-215 Pa s.c. xenograft; test: 5F9 vcMMAE and gemcitabine in PHTX-215 Pa s.c. xenografts (Study CPGC-13-EF10); assay type: in vivo, CB-17 SCID mice; conditions: for dAUC (percent decrease in treatment AUC relative to reference group V, vehicle): PHTX-215 Pa s.c. xenograft, CB-17 SCID mice
Protocol: as §1, §2
Table 77A the annotation table for group symbols. […] A negative dAUC is interpreted as an increase in AUC relative to the reference. It is important to evaluate not only the P value, but also the dAUC. Comparisons with significant P values, but small dAUC values, may not be of interest.

[6] = Study A, 0.075 mg/kg IV QW × 3 doses
[7] = Study A, 0.15 mg/kg IV QW × 3 doses
[8] = Study B, 0.135 mg/kg IV QW × 3 doses
[9] = Study B, 0.18 mg/kg IV QW × 3 doses
[10] = PHTX-215 Pa, immunoconjugate plus gemcitabine 15 mg/kg on days 1 and 3, or single agent gemcitabine

## CC[C@H](C)[C@@H]([C@@H](CC(=O)N1CCC[C@H]1[C@H](OC)[C@@H](C)C(=O)N[C@H](C)[C@@H](O)c1ccccc1)OC)N(C)C(=O)[C@@H](NC(=O)[C@@H](NC)C(C)C)C(C)C [MMAE, monomethyl auristatin E, reference compound] (H-[NMeV]V[Dil][Dolaproine]-X1)
[1]; 293 GCC #2 model
  AUCinf Serum: 56.3 ng·h/mL
  AUCinf Tumor: 24953 ng·h/mL
  Tumor/Serum: 443
[1]; PHTX-9C model
  AUCinf Serum: 68.3 ng·h/mL
  AUCinf Tumor: 8670 ng·h/mL
  Tumor/Serum: 127
[1]; PHTX-11C model
  AUCinf Serum: 44.1 ng·h/mL
  AUCinf Tumor: 13400 ng·h/mL
  Tumor/Serum: 304
293 GCC#2 tumors
  TGI: 35.6
293 GCC#2 tumors; complete response/partial response
  CR/PR: 0
293 GCC#2 tumors; treatment/control
  T/C: 0.64
293 GCC#2 tumors; tumor growth delay
  TGD: 2
[2]; [6]
  BW change (mean maximum percent): 8.3%
  TGD: 1.0 days
[2]; [7]
  BW change (mean maximum percent): 10.8%
  TGD: 2.0 days
[2]; [8]
  BW change (mean maximum percent): 9.3%
  TGD: 0.2 days
[2]; [9]
  BW change (mean maximum percent): −2.3%
  TGD: 8.6 days
[2]; Study B, 0.18 mg/kg IV QW × 3 doses, Day 20, 0.18 mg/kg
  TGI: 50.4 (p > 0.001) %
[2]; Study B, day 7, 0.18 mg/kg MMAE group and 0.938 mg/kg 5F9-vcMMAE group
  greatest maximum body weight loss during treatment period: 2.3%

## N.N.[Cl][Pt][Cl] [cisplatin]
PHTX-09c s.c. xenograft; 4 mg/kg once weekly
  number of doses tolerated: 2 doses
PHTX-09c s.c. xenograft; 6 mg/kg once weekly
  number of doses tolerated: 1 dose
PHTX-09c s.c. xenograft; PHTX-09c, cisplatin alone
  body weight loss: > 15%
PHTX-09c s.c. xenograft; group C: cisplatin 4 mg/kg QW x2, reference vehicle
  dAUC: 50.6%

## Nc1ccn([C@@H]2O[C@H](CO)[C@@H](O)C2(F)F)c(=O)n1 [gemcitabine]
[3]; PHTX-249 Pa (Studies CPGC-13-EF05/EF08), 5F9 vcMMAE 7.5 mg/kg, gemcitabine 15 mg/kg on days 1 and 3, alone or combined
  tumor regressions (animals): no tumor regressions
[3]; PHTX-249 Pa, 5F9 vcMMAE plus gemcitabine 15 mg/kg on days 1 and 3 vs single agent
  tumor growth delay: 17 days
[3]; group D: Gemcitabine 15 mg/kg BIW
  dAUC: 52.4%
[3]; group E: Gemcitabine 15 mg/kg D1,D3/week
  dAUC: 76.9%
[4]; group B: Gemcitabine 15 mg/kg BIW
  dAUC: 46.0%
[4]; group C: Gemcitabine 20 mg/kg BIW
  dAUC: 46.7%
[5]; [10]
  TGI: 69%
  tumor growth delay: 22.7 days
  tumor regressions (animals): no tumor regressions
[5]; group C: Gemcitabine 15 mg/kg IV D1,D3/week x3
  dAUC (percent decrease in treatment AUC relative to reference group V, vehicle): 61.0%
[5]; group F: Gemcitabine 20 mg/kg IV BIW
  dAUC (percent decrease in treatment AUC relative to reference group V, vehicle): 65.2%
